Test results published in patent US11571411B2, “Use of a bisamide derivative of malonic acid for treating allergic and other diseases in humans and animals” (PHARMENTERPRISES ALLERGY LLC, priority 2018, dated 2023).

What was measured:
[1] = system: ovalbumin-induced allergic rhinitis model; experiment: Ovalbumin-induced allergic rhinitis model in guinea pigs, nasal administration of 1% solution; assay type: in vivo, guinea pig; details: for Number of eosinophils per 1 μL of lavage fluid / Number of nose scratchings / Number of sneezes: 1% solution once intranasally
Protocol: Int Immunopharmacol. 2013. V.17(1). P.18-25]. Guinea pigs (250-300 g) were immunized with 4× (on days 0, 7, 14 and 21) intraperitoneal administration of a mixture of ovalbumin (100 μg/pig) and aluminum hydroxide (5 mg/pig), diluted and suspended in saline. On day 28 of the study, an ovalbumin solution (60 mg/ml) was injected intranasally to the animals, 20 μl into each nostril. On day 35, after shaving the skin on the back, the animals were injected intradermally with an ovalbumin solution (200 μg/ml, 25 μl). […] On day 42 of the study, an ovalbumin solution (60 mg/ml, 20 μl/nostril) was administered intranasally. A group of sham-immunized animals was formed in order to control the formation of allergic inflammation: the pigs received an aluminum hydroxide solution (5 mg/pig) on days 0, 7, 14 and 21, a saline solution on days 28 and 35, and an ovalbumin solution (60 mg/ml, 20 μl/nostril) on day 42.
A 1% solution of Compound I was administered to the animals intranasally once 1 hour or 3 hours before intranasal administration of ovalbumin in a volume of 10 μl/nostril. Clinical manifestations of rhinitis were assessed within 2 hours after the last administration of ovalbumin: the numbers of sneezes and nose scratchings were counted. In addition, eosinophils were counted in the nasal lavage fluid.

[2] = system: histamine-induced nasal congestion model; experiment: Histamine-induced nasal congestion model in guinea pigs, nasal administration of 1% solution; assay type: in vivo, guinea pig; details: for Resistance in nasal passages, AUC: 1% solution once intranasally, AUC 0-15 minutes
Protocol: A histamine-induced nasal congestion model in guinea pigs was performed according to the standard procedure [Slack R J1, Russell L J, Hall D A, Luttmann M A, Ford A J, Saunders K A, Hodgson S T, Connor H E, Browning C, Clark K L. Pharmacological characterization of GSK1004723, a novel, long-acting antagonist at histamine H(1) and H(3) receptors//Br J Pharmacol. 2011. V.164(6). P.1627-1641]. Guinea pigs were anesthetized, the trachea was isolated, and a cannula was inserted through it into the nasopharynx. The cannula was connected to a blood pressure sensor and artificial respirator (Ugo Basile). A 0.2% solution of histamine was inhaled for 3 minutes. The resistance to air flow in the nasal passages was assessed within 15 minutes after the end of inhalation of the histamine solution. Compound I was administered to guinea pigs once intranasally in the form of a 1% solution (10 μl/nostril) 1 hour and 4 hours before the inhalation of histamine.

[3] = molecular target: T1, human histamine receptor type 3 (Homo sapiens, UniProt Q9Y5N1); experiment: Binding of radiolabeled ligand [3H]Nα-methylhistamine to histamine receptor type 3; details: CHO cells, [3H]Nα-methylhistamine (1 nM)
T1 construct: expressed in transfected cells; host or cells: CHO cells
T1 sequence (Q9Y5N1 whole entry): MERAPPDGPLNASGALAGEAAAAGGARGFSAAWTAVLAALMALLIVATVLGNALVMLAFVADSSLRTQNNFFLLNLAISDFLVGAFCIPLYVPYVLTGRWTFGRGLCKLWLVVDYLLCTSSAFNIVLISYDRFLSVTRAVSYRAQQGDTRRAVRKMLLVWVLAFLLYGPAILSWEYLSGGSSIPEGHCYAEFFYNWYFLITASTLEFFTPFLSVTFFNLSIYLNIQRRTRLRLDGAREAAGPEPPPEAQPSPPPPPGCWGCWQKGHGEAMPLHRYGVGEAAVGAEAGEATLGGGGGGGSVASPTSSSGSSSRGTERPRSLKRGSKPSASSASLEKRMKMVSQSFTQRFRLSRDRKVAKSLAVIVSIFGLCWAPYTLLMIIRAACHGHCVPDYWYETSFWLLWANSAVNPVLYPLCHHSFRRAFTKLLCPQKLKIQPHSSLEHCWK

[4] = molecular target: T1, human histamine receptor type 3; experiment: Effect on activity of histamine receptor type 3 (intracellular cAMP, CHO cells); assay type: cell-based; details: preincubation with histamine, read-out: IC50, antagonist of histamine receptor type 3
[5] = molecular target: T2, human histamine receptor type 4 (Homo sapiens, UniProt Q9H3N8); experiment: Binding of radiolabeled ligand [3H] histamine to histamine receptor type 4; details: HEK-293 cells, [3H] histamine (10 nM)
T2 construct: expressed in transfected cells; host or cells: HEK-293 cells
T2 sequence (Q9H3N8 whole entry): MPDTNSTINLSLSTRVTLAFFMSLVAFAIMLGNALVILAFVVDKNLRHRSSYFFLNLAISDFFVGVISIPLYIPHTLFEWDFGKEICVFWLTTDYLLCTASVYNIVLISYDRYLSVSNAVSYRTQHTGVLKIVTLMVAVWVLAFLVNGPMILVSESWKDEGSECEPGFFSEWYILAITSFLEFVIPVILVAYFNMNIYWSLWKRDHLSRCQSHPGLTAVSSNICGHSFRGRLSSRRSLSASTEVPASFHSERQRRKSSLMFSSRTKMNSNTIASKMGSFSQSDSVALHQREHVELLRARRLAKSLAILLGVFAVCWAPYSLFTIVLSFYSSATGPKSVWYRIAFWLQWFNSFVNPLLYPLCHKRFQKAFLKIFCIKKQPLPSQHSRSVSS

[6] = 1 hour before the last administration of ovalbumin
[7] = 3 hours before the last administration of ovalbumin

O=C(CC(=O)NCCc1cnc[nH]1)NCCc1cnc[nH]1 [Compound I, N,N′-bis(2-(1H-imidazol-5-yl)ethyl)malonamide]
duration of the therapeutic effect ([1]; 1% solution intranasally, guinea pigs, allergic rhinitis): at least 3 hours | Number of eosinophils per 1 μL of lavage fluid [1, 6]: 1416.9 ± 126.8*#& per 1 μL | Number of nose scratchings [1, 6]: 14.5 ± 4.4& | Number of sneezes [1, 6]: 3.1 ± 1.2#& | Number of eosinophils per 1 μL of lavage fluid [1, 7]: 1490.1 ± 241.0*#& per 1 μL | Number of nose scratchings [1, 7]: 10.7 ± 2.1#& | Number of sneezes [1, 7]: 3.9 ± 1.5& | duration of the therapeutic effect ([2]; 1% solution intranasally, guinea pigs, histamine-induced nasal congestion): at least 4 hours | Resistance in nasal passages, AUC ([2]; 1 hour before histamine inhalation): 317.95 ± 24.49*& see H2O×c | Resistance in nasal passages, AUC ([2]; 3 hours before histamine inhalation): 281.75 ± 52.44*& see H2O×c | Ki [3]: 2.7 µM | IC50 [4]: 20 µM | Ki [5]: 16 µM
